Measured values from patent US20110143948A1, “MOLECULAR SIGNATURES AND BIOMARKERS ASSOCIATED WITH MELANOMA AND METHODS OF USE THEREOF” (priority 2008, published 2011).

Test system: ncRNAs (SEQ ID NO 28-89)
Test: ncRNA arrays of melanocytes, keratinocytes, normal skin, melanoma cell lines and patient samples
Design: species or system human
Settings: for ncRNA array expression, patient 2: melanoma patient 2 sample compared to normal skin; for ncRNA array expression, patient 3: melanoma patient 3 sample compared to normal skin; for ncRNA array expression, patient 4: melanoma patient 4 sample compared to normal skin; for ncRNA array expression, patient 5: melanoma patient 5 sample compared to normal skin; for ncRNA array expression, patient 6: melanoma patient 6 sample compared to normal skin; for ncRNA array expression, patient 7: melanoma patient 7 sample compared to normal skin; for ncRNA array expression, patient 8: melanoma patient 8 sample compared to normal skin; for ncRNA array expression, patient 9: melanoma patient 9 sample compared to normal skin; for ncRNA array expression, patient 10: melanoma patient 10 sample compared to normal skin; for ncRNA array expression, patient 19: melanoma patient 19 sample compared to normal skin; for ncRNA array expression, patient 20: melanoma patient 20 sample compared to normal skin; for ncRNA array expression, patient 21: melanoma patient 21 sample compared to normal skin; for ncRNA array expression, patient 22: melanoma patient 22 sample compared to normal skin; for ncRNA array expression, patient 23: melanoma patient 23 sample compared to normal skin; for ncRNA array expression, patient 24: melanoma patient 24 sample compared to normal skin; for ncRNA array expression, patient 25: melanoma patient 25 sample compared to normal skin; for ncRNA array expression, patient 26: melanoma patient 26 sample compared to normal skin; for ncRNA array expression, patient 27: melanoma patient 27 sample compared to normal skin; for ncRNA array expression, patient 28: melanoma patient 28 sample compared to normal skin; for ncRNA array expression, patient 29: melanoma patient 29 sample compared to normal skin; for ncRNA array expression, patient 30: melanoma patient 30 sample compared to normal skin
Summary of the method: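 Total RNA from melanocytes, keratinocytes, normal human skin, melanoma cell lines and melanoma patient samples was profiled on an array of >10,000 putative (>200 nt) human and mouse ncRNAs plus RefSeq mRNA probes. Expression was compared with melanocytes or normal skin, keratinocyte signatures were subtracted, and hits were validated by qRT-PCR and Northern blot.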

| Substance | ncRNA array expression, patient 2 | ncRNA array expression, patient 3 | ncRNA array expression, patient 4 | ncRNA array expression, patient 5 | ncRNA array expression, patient 6 | ncRNA array expression, patient 7 | ncRNA array expression, patient 8 | ncRNA array expression, patient 9 | ncRNA array expression, patient 10 | ncRNA array expression, patient 19 | ncRNA array expression, patient 20 | ncRNA array expression, patient 21 | ncRNA array expression, patient 22 | ncRNA array expression, patient 23 | ncRNA array expression, patient 24 | ncRNA array expression, patient 25 | ncRNA array expression, patient 26 | ncRNA array expression, patient 27 | ncRNA array expression, patient 28 | ncRNA array expression, patient 29 | further results |
| --- | --- | --- | --- | --- | --- | --- | --- | --- | --- | --- | --- | --- | --- | --- | --- | --- | --- | --- | --- | --- | --- |
| SEQ ID NO 43 (CTTAATCCACATTTGTTTTGAATTTTTCTGATTCCTATAGTACCATACTCTGATGCCTAT; listed as DNA, chemistry not given here; listed as Homo sapiens) | −1.3 | −1.272 | −1.462 | −1.269 | −1.488 | −1.541 | −1.511 | −1.226 | −1.371 | −1.531 | −1.239 | −1.321 | −1.451 | −1.442 | −1.2517 | −1.544 | −1.396 | −1.339 | −1.387 | −1.366 | ncRNA array expression, patient 30: −0.1449 |
| SEQ ID NO 68 (CAAAAAGAAATCTTGTTTACTTGTAAAAATATAGACTACCTCCTACTTGCCACCGTTAAG; listed as DNA, chemistry not given here; listed as Homo sapiens) | −1.029 | −0.899 | −1.233 | −1.828 | −0.6441 | −2.078 | −0.8097 | −1.121 | −1.445 | −0.5985 | −1.379 | −1.385 | −0.8953 | −0.7105 | −1.38 | −1.607 | −1.329 | −1.5151 | −1.556 | −1.309 | ncRNA array expression, patient 30: −0.1058 |
| SEQ ID NO 62 (AATCGTTAATATCATTGATATTAAGTAATTTCCCCACTCTGAGTGAATACTTTGATGATG; listed as DNA, chemistry not given here; listed as Homo sapiens) | 1.565 | 1.466 | 3.47 | 1.994 | 0.5751 | 2.152 | 0.2609 | 0.5801 | 1.264 | 1.414 | 1.836 | 0.6984 | 0.4968 | −0.5784 | 3.5 | 3.363 | 2.394 | 1.855 | 1.418 | 1.3702 | ncRNA array expression, patient 30: −1.545 |
| SEQ ID NO 65 (CACCGTTTTACTTTTTGTGGGGAGGGGAAGCAGTATCAAAATTTCTTCGGGCGCCAGAAC; listed as DNA, chemistry not given here; listed as Homo sapiens) | −1.177 | −1.344 | −1.215 | −1.301 | −1.643 | −1.264 | −1.391 | −1.267 | −0.3046 | −0.6567 | −1.283 | −1.289 | −1.03 | −1.597 | −1.241 | −1.384 | −1.415 | −1.388 | −1.421 | −1.2518 | ncRNA array expression, patient 30: 0.5803 |
| SEQ ID NO 31 (TTGCTTTTGTATTTGTAATTTTATGACATTTCGAAGTTTCTGTGTCTTAACTCTTTTTAA; listed as DNA, chemistry not given here; listed as Homo sapiens) | 2.958 | 2.154 | 2.238 | 2.368 | 1.429 | 4.22 | −0.4178 | 2.588 | 3.165 | 2.105 | 2.853 | 4.304 | 2.578 | 2.86 | 1.373 | 2.408 | 3.487 | 2.156 | 2.25 | 2.949 | ncRNA array expression, patient 30: −2.886 |
| SEQ ID NO 81 (CTAGGGGCGGAGTTTCTCGTAAGGGGCAAGGCCAAGGCATCTTGTATTGGGGCTGACAGG; listed as DNA, chemistry not given here; listed as Homo sapiens) | −2.704 | −2.664 | −2.74 | −2.515 | −1.776 | −2.533 | −2.25 | −2.579 | −3.027 | −2.079 | −2.527 | −2.568 | −1.3874 | −1.288 | −2.451 | −2.889 | −3.081 | −2.77 | −2.666 | −2.727 | ncRNA array expression, patient 30: 2.229 |
